pIC50: −log10 of the molar value. Starred links: 1 amine or outer side, 2 acyl side, 3 side chain; linkers in the order of their positions; H or OH if unused. Positions of bridges follow the written chain, without caps; N, C: chain ends. Residues, ends and D or L forms follow the SMILES beside them. CO = O=C([*:1])[*:2]
molecular target: T1, IL17-RE-IL-17C (Homo sapiens, UniProt Q8NFR9+Q9P0M4); assay: Inhibition of IL-17C/IL-17RE interaction (unknown origin) incubated for 1.5 hrs by ELISA method; assay type: protein-complex assay
T1 sequence (Q9P0M4 whole entry): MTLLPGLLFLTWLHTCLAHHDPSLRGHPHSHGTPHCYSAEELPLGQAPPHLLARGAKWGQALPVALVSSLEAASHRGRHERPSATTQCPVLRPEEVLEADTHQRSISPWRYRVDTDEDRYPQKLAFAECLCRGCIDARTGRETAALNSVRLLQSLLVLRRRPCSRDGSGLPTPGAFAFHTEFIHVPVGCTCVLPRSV
T1 sequence (Q8NFR9 whole entry): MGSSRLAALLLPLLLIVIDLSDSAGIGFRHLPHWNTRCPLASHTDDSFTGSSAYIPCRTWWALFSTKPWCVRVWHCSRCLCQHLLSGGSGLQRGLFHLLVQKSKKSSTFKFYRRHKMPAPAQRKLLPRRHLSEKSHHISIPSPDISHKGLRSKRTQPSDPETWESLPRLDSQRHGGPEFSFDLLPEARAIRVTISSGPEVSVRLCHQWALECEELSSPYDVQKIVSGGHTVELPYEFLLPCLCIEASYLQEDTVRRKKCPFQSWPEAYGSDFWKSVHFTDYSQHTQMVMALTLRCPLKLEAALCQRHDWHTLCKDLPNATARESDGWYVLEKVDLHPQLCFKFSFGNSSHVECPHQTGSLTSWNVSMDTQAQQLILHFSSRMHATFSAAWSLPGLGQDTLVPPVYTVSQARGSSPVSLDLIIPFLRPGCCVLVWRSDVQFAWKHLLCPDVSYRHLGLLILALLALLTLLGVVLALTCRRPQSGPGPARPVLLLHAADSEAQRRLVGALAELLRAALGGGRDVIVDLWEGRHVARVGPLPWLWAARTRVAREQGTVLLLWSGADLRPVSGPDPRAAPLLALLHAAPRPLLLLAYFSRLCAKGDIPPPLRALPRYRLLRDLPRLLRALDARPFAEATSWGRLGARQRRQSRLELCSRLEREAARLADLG

| Structure (SMILES) | pIC50 |
| --- | --- |
| CC[C@H](C)[C@@H]1NC(=O)[C@H](Cc2cnc[nH]2)NC(=O)[C@H](Cc2ccc(O)cc2)NC(=O)CSC[C@@H](C(=O)NCC(N)=O)NC(=O)CNC(=O)[C@H](CC(C)C)NC(=O)[C@H](CO)NC(=O)CNC(=O)[C@H](Cc2ccc(O)cc2)NC(=O)[C@H](CC(C)C)NC(=O)[C@H](CO)NC(=O)[C@H](C)NC(=O)[C@H](Cc2ccc(O)cc2)NC(=O)[C@@H](Cc2ccc(O)cc2)NC1=O | 8.31 |
| CC[C@H](C)[C@@H]1NC(=O)[C@H](Cc2c[nH]cn2)NC(=O)[C@H](Cc2ccc(O)cc2)NC(=O)CSC[C@@H](C(=O)NCC(N)=O)NC(=O)CNC(=O)[C@H](CC(C)C)NC(=O)[C@H]([C@H](C)O)NC(=O)CNC(=O)[C@H](Cc2ccc(O)cc2)NC(=O)[C@H](CC(C)C)NC(=O)[C@H](CO)NC(=O)[C@H](Cc2ccc(O)cc2)NC(=O)[C@H](Cc2ccc(O)cc2)NC(=O)[C@H](Cc2ccc(O)cc2)NC1=O | 8.54 |
| CC(C)C[C@@H]1NC(=O)[C@H](C)NC(=O)[C@H](CCCNC(=N)N)NC(=O)[C@H](Cc2ccc(O)cc2)NC(=O)[C@H](Cc2ccc(O)cc2)NC(=O)[C@H](Cc2c[nH]cn2)NC(=O)[C@H](Cc2c[nH]cn2)NC(=O)[C@H](Cc2ccc(O)cc2)NC(=O)SC[C@@H](C(=O)NCC(N)=O)NC(=O)CNC(=O)[C@H](CC(C)C)NC(=O)[C@H](CCC(=O)O)NC(=O)CNC(=O)[C@H](Cc2ccc(O)cc2)NC1=O (YHHYYRALYGELGCG-NH2; linker N-14 via CO) | 6.60 |
| CC[C@H](C)[C@@H]1NC(=O)[C@H](CCCNC(=N)N)NC(=O)[C@H](Cc2ccc(O)cc2)NC(=O)[C@H](Cc2ccc(O)cc2)NC(=O)C(C)NC(=O)[C@H](Cc2c[nH]cn2)NC(=O)[C@H](Cc2ccc(O)cc2)NC(=O)CSC[C@@H](C(=O)NCC(N)=O)NC(=O)CNC(=O)[C@H](CC(C)C)NC(=O)[C@H](CCC(=O)O)NC(=O)CNC(=O)[C@H](Cc2ccc(O)cc2)NC(=O)[C@H](CC(C)C)NC1=O (single isomer, unassigned) | 6.28 |
| CC[C@H](C)[C@@H]1NC(=O)[C@H](CCCNC(=N)N)NC(=O)[C@H](Cc2ccc(O)cc2)NC(=O)[C@H](Cc2ccc(O)cc2)NC(=O)[C@H](Cc2c[nH]cn2)NC(=O)[C@H](Cc2c[nH]cn2)NC(=O)[C@H](Cc2ccc(O)cc2)NC(=O)CSC[C@@H](C(=O)NCC(N)=O)NC(=O)[C@H](CO)NC(=O)[C@H](CC(C)C)NC(=O)[C@H](CCC(=O)O)NC(=O)CNC(=O)[C@H](Cc2ccc(O)cc2)NC(=O)[C@H](CC(C)C)NC1=O (stereo in doubt) | < 4.52 |
| CC[C@H](C)[C@@H]1NC(=O)[C@H](CCCNC(=N)N)NC(=O)[C@H](Cc2ccc(O)cc2)NC(=O)[C@H](Cc2ccc(O)cc2)NC(=O)[C@H](Cc2c[nH]cn2)NC(=O)[C@H](C)NC(=O)[C@H](Cc2ccc(O)cc2)NC(=O)CSC[C@@H](C(=O)NCC(N)=O)NC(=O)CNC(=O)[C@H](CC(C)C)NC(=O)[C@H](CCC(=O)O)NC(=O)CNC(=O)[C@H](Cc2ccc(O)cc2)NC(=O)[C@H](CC(C)C)NC1=O ({CH2CO}-YAHYYRILYGELGCG-NH2; thioether N-14) | < 4.52 |
| CC(C)C[C@@H]1NC(=O)[C@H](Cc2c[nH]c3ccccc23)NC(=O)[C@H](Cc2ccccc2)NC(=O)[C@H](CC(N)=O)NC(=O)[C@H](Cc2ccc(O)cc2)NC(=O)[C@H](CO)NC(=O)[C@H](Cc2ccc(O)cc2)NC(=O)[C@H](CCCNC(=N)N)NC(=O)[C@H](CC(C)C)NC(=O)[C@H](CC(=O)O)NC(=O)[C@H](Cc2ccc(O)cc2)NC(=O)CSC[C@@H](C(=O)NCC(N)=O)NC(=O)[C@H](C)NC1=O ({CH2CO}-YDLRYSYNFWLACG-NH2; thioether N-13) | < 4.52 |
| CC[C@H](C)[C@@H]1NC(=O)[C@H](Cc2c[nH]c3ccccc23)NC(=O)[C@H](C)NC(=O)[C@H](CC(=O)O)NC(=O)[C@H](Cc2ccccc2)NC(=O)[C@H](Cc2c[nH]cn2)NC(=O)[C@H](Cc2ccc(O)cc2)NC(=O)CSC[C@@H](C(=O)NCC(N)=O)NC(=O)[C@H](CC(C)C)NC(=O)[C@H](CO)NC(=O)[C@H](CCCNC(=N)N)NC(=O)[C@H](C)NC1=O ({CH2CO}-YHFDAWIARSLCG-NH2; thioether N-12) | < 4.52 |
| CC[C@H](C)[C@@H]1NC(=O)[C@H](Cc2c[nH]c3ccccc23)NC(=O)[C@H](C)NC(=O)[C@H](CC(=O)O)NC(=O)[C@H](Cc2ccccc2)NC(=O)[C@H](Cc2c[nH]cn2)NC(=O)[C@H](Cc2ccc(O)cc2)NC(=O)CSC[C@@H](C(=O)NCC(N)=O)NC(=O)[C@H](CCC(N)=O)NC(=O)[C@H](CC(C)C)NC(=O)[C@H](CC(C)C)NC(=O)[C@H]([C@@H](C)O)NC(=O)[C@H](C)NC1=O ({CH2CO}-YHFDAWIATLLQCG-NH2; thioether N-13) | < 4.52 |
| CC(C)C[C@@H]1NC(=O)[C@H](Cc2c[nH]c3ccccc23)NC(=O)[C@H](C)NC(=O)[C@H](CC(=O)O)NC(=O)[C@H](Cc2ccccc2)NC(=O)[C@H](Cc2c[nH]cn2)NC(=O)[C@H](Cc2ccc(O)cc2)NC(=O)CSC[C@@H](C(=O)NCC(=O)O)NC(=O)[C@H](CC(C)C)NC(=O)[C@H](Cc2ccc(O)cc2)NC(=O)[C@H](CC(=O)O)NC(=O)[C@H](CCCCN)NC1=O ({CH2CO}-YHFDAWLKDYLCG-OH; thioether N-12) | < 4.52 |
| CC(C)C[C@@H]1NC(=O)[C@H](Cc2ccc(O)cc2)NC(=O)[C@H](CC(=O)O)NC(=O)[C@H](CCCCN)NC(=O)[C@H](CC(C)C)NC(=O)[C@H](Cc2c[nH]c3ccccc23)NC(=O)[C@H](C)NC(=O)[C@H](CC(=O)O)NC(=O)[C@H](Cc2ccccc2)NC(=O)[C@H](Cc2c[nH]cn2)NC(=O)[C@H](Cc2ccc(O)cc2)NC(=O)CSC[C@@H](C(=O)NCC(N)=O)NC(=O)CNC1=O ({CH2CO}-YHFDAWLKDYLGCG-NH2; thioether N-13) | < 4.52 |
| CC(C)C[C@@H]1NC(=O)[C@H](Cc2c[nH]c3ccccc23)NC(=O)[C@H](C)NC(=O)[C@H](CC(=O)O)NC(=O)[C@H](Cc2ccccc2)NC(=O)[C@H](Cc2c[nH]cn2)NC(=O)[C@H](Cc2ccc(O)cc2)NC(=O)CSC[C@@H](C(=O)NCC(N)=O)NC(=O)[C@H](CC(C)C)NC(=O)[C@H](CC(C)C)NC(=O)[C@H]([C@@H](C)O)NC(=O)[C@H](CO)NC1=O ({CH2CO}-YHFDAWLSTLLCG-NH2; thioether N-12) | < 4.52 |
| CC(C)C[C@@H]1NC(=O)[C@H](Cc2c[nH]c3ccccc23)NC(=O)[C@H](Cc2c[nH]cn2)NC(=O)[C@H](CC(=O)O)NC(=O)[C@H](Cc2ccccc2)NC(=O)[C@H](Cc2c[nH]cn2)NC(=O)[C@H](Cc2ccc(O)cc2)NC(=O)CSC[C@@H](C(=O)NCC(N)=O)NC(=O)[C@H](CC(C)C)NC(=O)[C@H](CC(C)C)NC(=O)[C@H](Cc2c[nH]cn2)NC(=O)[C@H](C)NC1=O ({CH2CO}-YHFDHWLAHLLCG-NH2; thioether N-12) | < 4.52 |
| CC[C@H](C)[C@@H]1NC(=O)[C@H](CC(C)C)NC(=O)[C@H](C)NC(=O)[C@H](CC(C)C)NC(=O)[C@H](Cc2c[nH]c3ccccc23)NC(=O)[C@H](CC(N)=O)NC(=O)[C@H](CC(=O)O)NC(=O)[C@H](Cc2ccccc2)NC(=O)[C@H](Cc2c[nH]cn2)NC(=O)[C@H](Cc2ccc(O)cc2)NC(=O)CSC[C@@H](C(=O)NCC(N)=O)NC(=O)[C@H](CC(C)C)NC1=O ({CH2CO}-YHFDNWLALILCG-NH2; thioether N-12) | < 4.52 |
| CC(C)C[C@@H]1NC(=O)[C@H](Cc2c[nH]c3ccccc23)NC(=O)[C@H](CC(N)=O)NC(=O)[C@H](CC(=O)O)NC(=O)[C@H](Cc2ccccc2)NC(=O)[C@H](Cc2c[nH]cn2)NC(=O)[C@H](Cc2ccc(O)cc2)NC(=O)CSC[C@@H](C(=O)NCC(N)=O)NC(=O)[C@H](CC(C)C)NC(=O)[C@H](Cc2ccccc2)NC(=O)[C@H](C(C)C)NC(=O)[C@H](CCCNC(=N)N)NC1=O ({CH2CO}-YHFDNWLRVFLCG-NH2; thioether N-12) | < 4.52 |
| CC(C)C[C@@H]1NC(=O)[C@H](CC(C)C)NC(=O)[C@H](CCCCN)NC(=O)[C@H](CO)NC(=O)[C@H](CC(C)C)NC(=O)[C@H](Cc2c[nH]c3ccccc23)NC(=O)[C@H](CC(N)=O)NC(=O)[C@H](CC(=O)O)NC(=O)[C@H](Cc2ccccc2)NC(=O)[C@H](Cc2c[nH]cn2)NC(=O)[C@H](Cc2ccc(O)cc2)NC(=O)CSC[C@@H](C(=O)NCC(N)=O)NC(=O)[C@H](CC(=O)O)NC1=O ({CH2CO}-YHFDNWLSKLLDCG-NH2; thioether N-13) | < 4.52 |
| CC(C)C[C@@H]1NC(=O)[C@H](Cc2c[nH]c3ccccc23)NC(=O)[C@H](CO)NC(=O)[C@H](CC(=O)O)NC(=O)[C@H](Cc2ccccc2)NC(=O)[C@H](Cc2c[nH]cn2)NC(=O)[C@H](Cc2ccc(O)cc2)NC(=O)CSC[C@@H](C(=O)NCC(N)=O)NC(=O)[C@H](CCCCN)NC(=O)[C@H](CC(C)C)NC(=O)[C@H](CCCNC(=N)N)NC(=O)[C@H](CCCCN)NC(=O)[C@H](C)NC1=O ({CH2CO}-YHFDSWLAKRLKCG-NH2; thioether N-13) | < 4.52 |
| CC(C)C[C@@H]1NC(=O)[C@H](C)NC(=O)[C@H]([C@@H](C)O)NC(=O)[C@H](C)NC(=O)[C@H](CC(C)C)NC(=O)[C@H](Cc2c[nH]c3ccccc23)NC(=O)[C@H](CO)NC(=O)[C@H](CC(=O)O)NC(=O)[C@H](Cc2ccccc2)NC(=O)[C@H](Cc2c[nH]cn2)NC(=O)[C@H](Cc2ccc(O)cc2)NC(=O)CSC[C@@H](C(=O)NCC(N)=O)NC(=O)[C@H](CCCNC(=N)N)NC1=O ({CH2CO}-YHFDSWLATALRCG-NH2; thioether N-13) | < 4.52 |

— ChEMBL document CHEMBL5360618, “PepScaf: Harnessing Machine Learning with In Vitro Selection toward De Novo Macrocyclic Peptides against IL-17C/IL-17RE Interaction” (J Med Chem, 2023)
